One block for each molecule: values may come before it.
Legend:
KMS-28-BM [1] = experiment: 7 day pretreatment + 4-day co-treatment combination model (Cell Titer Glo); conditions: for IC50: KMS-28BM, 96 h, read-out: 4-day IC50; for combinatorial effect by Loewe volumes / Loewe volume: second agent + tazemetostat, 7 day pretreatment + 4-day co-treatment; for combinatorial effect by Loewe volumes: KMS-28-BM t(4;14); for Loewe volume: KMS-28-BM
Procedure: (§1) Assay plates were developed for endpoint analysis using Cell Titer Glo to measure ATP content, which was used as an indicator of cell viability. DMSO concentration was kept constant throughout the assay at less than 0.2% v/v.
(§2) All cells were maintained as instructed by the supplier and cultures were maintained at 37° C. in a humidified atmosphere and 5% CO2.
(§3) Loewe volumes greater than 1 denoted synergy and volumes <−1 denoted antagonism.

MM1.S [2] = experiment: 7-day co-treatment combination model (Cell Titer Glo); conditions: for IC50: Homo sapiens, 168 h, read-out: 7-day IC50
Procedure: as §1
(§4) Cell lines: The cell lines MI1.S and U266B1 were obtained from American Type Culture Collection (ATCC; Rockville, MD). […] All cells were maintained as instructed by the supplier and cultures were maintained at 37° C. in a humidified atmosphere and 5% CO2.
as §3

LP-1 [3] = experiment: 7 day pretreatment + 4-day co-treatment combination model (Cell Titer Glo); conditions: for IC50: Homo sapiens, LP-1, 96 h, read-out: 4-day IC50; for combinatorial effect by Loewe volumes: second agent + tazemetostat, 7 day pretreatment + 4-day co-treatment, LP-1 t(4;14)
Source text: as §1
(§5) Cell lines: The cell lines MI1.S and U266B1 were obtained from American Type Culture Collection (ATCC; Rockville, MD). The cell lines LP-1, L-363 were obtained from Deutsche Sammlung von Mikroorganismen and Zellkulturen (DSMZ; Braunschweig, Germany) and the cell line KMS-28BM was obtained from Japanese Collection of Research Bioresources Cell Bank (JCRB, Osaka Japan). All cells were maintained as instructed by the supplier and cultures were maintained at 37° C. in a humidified atmosphere and 5% CO2.
as §3

L-363 = experiment: as above; conditions: for IC50: Homo sapiens, L-363, 96 h, read-out: 4-day IC50; for combinatorial effect by Loewe volumes: second agent + tazemetostat, 7 day pretreatment + 4-day co-treatment, L-363 t(20;22)
Source text: as §1, §5, §3

KMS-28-BM [4] = experiment: 7-day co-treatment combination model (Cell Titer Glo); conditions: for IC50: KMS-28BM, 168 h, read-out: 7-day IC50; for combinatorial effect by Loewe volumes / Loewe volume: second agent + tazemetostat; for combinatorial effect by Loewe volumes: 7-day co-treatment, KMS-28-BM t(4;14); for Loewe volume: 7 day co-treatment, KMS-28-BM
Procedure: as §1, §2, §3

RPMI-8226 [5] = experiment: as above
Procedure: as §1, §4, §3

MM1.S [6] = experiment: 7 day pretreatment + 4-day co-treatment combination model (Cell Titer Glo); conditions: Homo sapiens, MM1.S, 96 h, read-out: 4-day IC50
Source text: as §1, §5, §3

U266 = experiment: as above; conditions: for IC50: Homo sapiens, U-266, 96 h, read-out: 4-day IC50; for combinatorial effect by Loewe volumes: second agent + tazemetostat, 7 day pretreatment + 4-day co-treatment, U266 t(11;14)
Source text: as §1, §5, §3

Maver-1 = experiment: mantle cell lymphoma 7 day pretreatment + 4-day co-treatment model (Cell Titer Glo)
Source text: (§6) Cells were then co-treated in triplicate with a second compound, 3-fold serially diluted for additional 4 days. After this time, plates were developed for endpoint analysis using Cell Titer Glo to measure ATP content, which is used as an indicator of cell viability.
(§7) A Loewe volume greater than 1 denoted synergy. A Loewe volume between −1 and 1 denoted additivity, and a negative Loewe volume of less than −1, denoted antagonism.

Granta-519 [7] = experiment: as above
Source text: as §6, §7

Jeko-1 [8] = experiment: mantle cell lymphoma 7 day co-treatment model; format: cell-based; conditions: for Best CI / Bliss Volume / HSA Volume / Loewe Volume / Synergy Score: second agent + tazemetostat, 7 day co-treatment; for IC50: second agent alone, 7 day co-treatment model
Jeko-1 [9] = experiment: mantle cell lymphoma 7 day pretreatment + 4-day co-treatment model (Cell Titer Glo); conditions: for IC50: Homo sapiens, JeKo-1, 96 h, read-out: Second agent IC50; for Bliss Volume / HSA Volume / Loewe Volume / Synergy Score: second agent + tazemetostat, 7 day pretreatment + 4-day co-treatment, Jeko-1
Source text: as §6, §7

[10] = tested on: multiple myeloma cell lines and primary patient samples; conditions: reported in the literature; cited from earlier work
Granta-519 [11] = experiment: mantle cell lymphoma 7 day co-treatment model; format: cell-based; conditions: for IC50: Homo sapiens, 168 h, second agent alone, 7 day co-treatment model; for Best CI / Bliss Volume / HSA Volume / Loewe Volume / Synergy Score: second agent + tazemetostat, 7 day co-treatment
MOLP-8 [12] = experiment: 7 day pretreatment + 4-day co-treatment combination model (Cell Titer Glo); conditions: second agent + tazemetostat, MOLP-8 t(11;14)
Procedure: as §1, §2, §3

MOLP-8 [13] = experiment: 7-day co-treatment combination model (Cell Titer Glo); conditions: second agent + tazemetostat; for combinatorial effect by Loewe volumes: 7-day co-treatment, MOLP-8 t(11;14); for Loewe volume: 7 day co-treatment, MOLP-8
Procedure: as §1, §2, §3

LP-1 [14] = experiment: as above; conditions: second agent + tazemetostat; 7-day co-treatment; LP-1 t(4;14)
Procedure: as §1, §2, §3

RPMI-8226 [15] = experiment: apoptosis in RPMI-8226 cells; format: cell-based; conditions: tazemetostat 31, 125, 500 nM + pomalidomide 3, 12.5, 50 nM, 3 days
[16] = tested on: Ikaros, Aiolos, IRF4 expression in RPMI-8226 cells; experiment: western blot of Ikaros, Aiolos, IRF4 in RPMI-8226 cells; format: cell-based; conditions: 3 days
[17] = second agent + tazemetostat, 7 day co-treatment
[18] = second agent + tazemetostat, 7 day pretreatment + 4-day co-treatment, Maver-1
[19] = second agent + tazemetostat, 7 day pretreatment + 4-day co-treatment, Granta-519

- IC50 (MM1.S [2]): 1.92 nM
- IC50 (MM1.S [6]): 1.4 nM
- IC50 (U266): 2 nM
Structure (SMILES): CC(C)C[C@H](NC(=O)[C@H](Cc1ccccc1)NC(=O)c1cnccn1)B(O)O [Bortezomib, bortezomib]
- IC50 (KMS-28-BM [1]): 3 nM
- IC50 (LP-1 [3]): 3 nM
- IC50 (L-363): 5 nM
- IC50 (KMS-28-BM [4]): 5.22 nM
- vbliss (RPMI-8226 [5]; second agent + tazemetostat, 7 day co-treatment, printed in Loewe volume column): vbliss: 0.24

- IC50 (Jeko-1 [8]): 872 nM
- IC50 (MM1.S [6]): 305 nM
- IC50 (U266): > 10000 nM
- IC50 (Jeko-1 [9]): 902 nM
Structure (SMILES): Nc1cccc2c1CN(C1CCC(=O)NC1=O)C2=O (stereo not drawn) [Lenalidomide, lenalidomide]
- IC50 (KMS-28-BM [1]): > 10000 nM
- combinatorial effect by Loewe volumes (KMS-28-BM [1]): S (Synergy)
- IC50 (LP-1 [3]): 973 nM
- combinatorial effect by Loewe volumes (LP-1 [3]): S (Synergy)
- combinatorial effect by Loewe volumes (MOLP-8 [12]): S (Synergy)
- IC50 (L-363): 379 nM
- combinatorial effect by Loewe volumes (L-363): S (Synergy)
- Best CI (Jeko-1 [8]): 0.35
- Bliss Volume (Jeko-1 [8]): 1.86
- HSA Volume (Jeko-1 [8]): 2.74
- Loewe Volume (Jeko-1 [8]): 2.87
- Synergy Score (Jeko-1 [8]): 3.68
- combinatorial effect by Loewe volumes (U266): S (Synergy)
- Bliss Volume (Jeko-1 [9]): 2.67
- HSA Volume (Jeko-1 [9]): 4.46
- Loewe Volume (Jeko-1 [9]): 4.35
- Synergy Score (Jeko-1 [9]): 4.01

- IC50 (MM1.S [2]): 1.34 nM
- IC50 (MM1.S [6]): 5.8 nM
- IC50 (U266): 5 nM
Structure (SMILES): Cc1[nH]c2ccccc2c1CCNCc1ccc(/C=C/C(=O)NO)cc1 [Panobinostat, panobinostat]
- IC50 (KMS-28-BM [1]): 2.5 nM
- Loewe volume (KMS-28-BM [1]): 2.03
- combinatorial effect by Loewe volumes (KMS-28-BM [1]): S (Synergy)
- IC50 (LP-1 [3]): 3 nM
- combinatorial effect by Loewe volumes (LP-1 [3]): S (Synergy)
- combinatorial effect by Loewe volumes (MOLP-8 [12]): A (Additive)
- IC50 (L-363): 3 nM
- combinatorial effect by Loewe volumes (L-363): S (Synergy)
- IC50 (KMS-28-BM [4]): 1.26 nM
- combinatorial effect by Loewe volumes (KMS-28-BM [4]): S (Synergy)
- Loewe volume (KMS-28-BM [4]): 5.19
- Loewe volume (RPMI-8226 [5]; [17]): 2.24
- combinatorial effect by Loewe volumes (MOLP-8 [13]): S (Synergy)
- Loewe volume (MOLP-8 [13]): 2.14
- combinatorial effect by Loewe volumes (U266): S (Synergy)
- combinatorial effect by Loewe volumes (LP-1 [14]): S (Synergy)

- IC50 (MM1.S [2]): 35.2 nM
- IC50 (MM1.S [6]): 47 nM
- IC50 (U266): > 10000 nM
Structure (SMILES): Nc1cccc2c1C(=O)N(C1CCC(=O)NC1=O)C2=O (stereo not drawn) [Pomalidomide, pomalidomide]
- IC50 (KMS-28-BM [1]): 2540 nM
- Loewe volume (KMS-28-BM [1]): 6.37
- combinatorial effect by Loewe volumes (KMS-28-BM [1]): S (Synergy)
- apoptosis (RPMI-8226 [15]): enhanced apoptosis
- IRF4 expression, combined treatment ([16]; pomalidomide + tazemetostat vs either alone): enhances repression of IRF4
- Ikaros and Aiolos levels ([16]; single agent 12.5, 50 or 200 nM): results in Ikaros and Aiolos degradation
- IC50 (LP-1 [3]): 106 nM
- combinatorial effect by Loewe volumes (LP-1 [3]): S (Synergy)
- combinatorial effect by Loewe volumes (MOLP-8 [12]): S (Synergy)
- IC50 (L-363): 69 nM
- combinatorial effect by Loewe volumes (L-363): S (Synergy)
- IC50 (KMS-28-BM [4]): 100 nM
- combinatorial effect by Loewe volumes (KMS-28-BM [4]): S (Synergy)
- Loewe volume (KMS-28-BM [4]): 7.65
- curve shift analysis of combination (RPMI-8226 [5]; pomalidomide + tazemetostat, 7-day combination assay (FIG. 8)): synergy
- Loewe volume (RPMI-8226 [5]; [17]): 3.9
- combinatorial effect by Loewe volumes (MOLP-8 [13]): S (Synergy)
- Loewe volume (MOLP-8 [13]): 5.73
- combinatorial effect by Loewe volumes (U266): S (Synergy)
- combinatorial effect by Loewe volumes (LP-1 [14]): S (Synergy)

- IC50 (Granta-519 [7]; Homo sapiens, Granta-519, read-out: Second agent IC50): 58 nM
- IC50 (Granta-519 [11]): 41 nM
Structure (SMILES): CC1(C)CCC(CN2CCN(c3ccc(C(=O)NS(=O)(=O)c4ccc(NCC5CCOCC5)c([N+](=O)[O-])c4)c(Oc4cnc5[nH]ccc5c4)c3)CC2)=C(c2ccc(Cl)cc2)C1 [Venetoclax, venetoclax]
- combinatorial effect by Loewe volumes (KMS-28-BM [1]): S (Synergy)
- Best CI (Granta-519 [7]; [19]): 0.09
- Bliss Volume (Granta-519 [7]; [19]): 3.95
- HSA Volume (Granta-519 [7]; [19]): 7.17
- Loewe Volume (Granta-519 [7]; [19]): 6.72
- Synergy Score (Granta-519 [7]; [19]): 7.23
- Best CI (Granta-519 [11]): 0.43
- Bliss Volume (Granta-519 [11]): 1.76
- HSA Volume (Granta-519 [11]): 3.06
- Loewe Volume (Granta-519 [11]): 2.73
- Synergy Score (Granta-519 [11]): 3.82
- combinatorial effect by Loewe volumes (LP-1 [3]): S (Synergy)
- combinatorial effect by Loewe volumes (MOLP-8 [12]): A (Additive)
- combinatorial effect by Loewe volumes (MOLP-8 [13]): A (Additive)
- combinatorial effect by Loewe volumes (LP-1 [14]): S (Synergy)

The remaining lines, values behind:

Structure (SMILES): Cc1nc2cccc(N)c2c(=O)n1C1CCC(=O)NC1=O (stereo not drawn) [CC-122]
- Loewe volume (MM1.S [2]; [17]): 1.93
- Loewe volume (RPMI-8226 [5]; [17]): 2.29

Structure (SMILES): CO[C@H]1C[C@@H]2CC[C@@H](C)[C@@](O)(O2)C(=O)C(=O)N2CCCC[C@H]2C(=O)O[C@H]([C@H](C)C[C@@H]2CC[C@@H](OCCO)[C@H](OC)C2)CC(=O)[C@H](C)/C=C(\C)[C@@H](O)[C@@H](OC)C(=O)[C@H](C)C[C@H](C)/C=C/C=C/C=C/1C [Everolimus, everolimus]
- Loewe volume (Maver-1; [18]): 6.5
- Loewe volume (Granta-519 [7]; [19]): 5.1
- Best CI (Jeko-1 [8]): 1.0
- Bliss Volume (Jeko-1 [8]): −0.060
- HSA Volume (Jeko-1 [8]): 0.084
- Loewe Volume (Jeko-1 [8]): 0.56
- Synergy Score (Jeko-1 [8]): 0.4
- IC50 (Jeko-1 [8]): 0.5 nM
- IC50 (Jeko-1 [9]): 0.7 nM
- Bliss Volume (Jeko-1 [9]): 1.42
- HSA Volume (Jeko-1 [9]): 4.62
- Loewe Volume (Jeko-1 [9]): 3.95
- Synergy Score (Jeko-1 [9]): 4.03

Structure (SMILES): CCCc1cc(C)[nH]c(=O)c1CNC(=O)c1cc(-c2ccnc(N3CCN(C)CC3)c2)cc2c1cnn2C(C)C [GSK343]
- growth of multiple myeloma cell lines and primary patient samples [10]: inhibited

Structure (SMILES): C=CC(=O)N1CCC[C@@H](n2nc(-c3ccc(Oc4ccccc4)cc3)c3c(N)ncnc32)C1 [Ibrutinib, ibrutinib]
- IC50 (Maver-1; Homo sapiens, Maver1, read-out: Second agent IC50): > 3300 nM
- Best CI (Maver-1; [18]): 0.08
- Bliss Volume (Maver-1; [18]): 0.804
- HSA Volume (Maver-1; [18]): 3.90
- Loewe Volume (Maver-1; [18]): 3.76
- Loewe volume (Maver-1; [18]): 3.8
- Synergy Score (Maver-1; [18]): 2.33
- Loewe volume (Granta-519 [7]; [19]): 5.8
- IC50 (Granta-519 [11]): 856 nM
- Best CI (Granta-519 [11]): 0.38
- Bliss Volume (Granta-519 [11]): 0.894
- HSA Volume (Granta-519 [11]): 3.86
- Loewe Volume (Granta-519 [11]): 4.16
- Synergy Score (Granta-519 [11]): 2.26

Structure (SMILES): C[C@]12C=CC(=O)C=C1CC[C@@H]1[C@@H]2[C@@H](O)C[C@@]2(C)[C@H]1CC[C@]2(O)C(=O)CO [Prednisolone, prednisolone]
- IC50 (KMS-28-BM [1]): 36 nM
- combinatorial effect by Loewe volumes (KMS-28-BM [1]): S (Synergy)
- IC50 (LP-1 [3]): 36 nM
- combinatorial effect by Loewe volumes (LP-1 [3]): S (Synergy)
- combinatorial effect by Loewe volumes (MOLP-8 [12]): S (Synergy)
- IC50 (L-363): 100 nM
- combinatorial effect by Loewe volumes (L-363): A (Additive)
- IC50 (MM1.S [6]): 158 nM
- IC50 (U266): > 10000 nM
- combinatorial effect by Loewe volumes (U266): A (Additive)

Structure (SMILES): CCN(c1cc(-c2ccc(CN3CCOCC3)cc2)cc(C(=O)NCc2c(C)cc(C)[nH]c2=O)c1C)C1CCOCC1 [Tazemetostat, tazemetostat]
- IRF4 expression, single agent ([16]; single agent 31, 125 or 500 nM): reduces TRF4 expression
